Patent publication US11667606B2, “Thyromimetics” (Autobahn Therapeutics, Inc., priority 2019, dated 2023)

Tests used:
[1] = biological target: T1, TRα (Homo sapiens, UniProt P10827); assay: Thyroid-hormone reporter-gene assay, TRα (Gal4 DBD hybrid, luciferase, HEK293); format: cell-based; settings: reporter cells derived from HEK293, 24 hr incubation, luciferase readout
T1 construct: expressed in transfected cells; host or cells: HEK293
T1 sequence (P10827 128-410 isoform P10827-2 limits assumed): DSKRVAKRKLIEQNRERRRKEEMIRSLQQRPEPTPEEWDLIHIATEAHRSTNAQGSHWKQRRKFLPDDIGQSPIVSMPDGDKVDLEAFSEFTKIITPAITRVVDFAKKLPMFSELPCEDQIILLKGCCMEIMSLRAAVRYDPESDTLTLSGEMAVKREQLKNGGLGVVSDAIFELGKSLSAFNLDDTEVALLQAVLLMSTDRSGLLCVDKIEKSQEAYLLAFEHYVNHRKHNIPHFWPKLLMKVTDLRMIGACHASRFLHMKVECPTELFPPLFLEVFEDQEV
Method: (§1) Compounds were tested for thyroid-hormone receptor activity using TR reporter-gene assays. Reporter cells used in the assays express a TR-receptor hybrid (either TRα or TRβ) in which the native N-terminal DNA binding domain (DBD) has been replaced with that of the yeast Gal4 DBD. The reporter gene, firefly luciferase, is functionally linked to the Gal4 upstream activation sequence (UAS). Both cell lines were derived from human embryonic kidney (HEK293).
(§2) A suspension of reporter cells was prepared in cell recovery medium containing 10% charcoal-stripped FBS, and dispensed into assay plates. The plates were pre-incubated for 6 hours in a cell culture incubator (37° C./5% CO2/85% humidity).
(§3) These intermediate stocks were subsequently diluted directly into compound screening medium containing 10% charcoal-stripped FBS to generate “2×-concentration” treatment media (containing 0.2, 0.4 or 0.8% DMSO).
(§4) At the end of the pre-incubation period, culture media were discarded from the assay plates, and all wells received 100 μl of compound screening medium. 100 μl of each of the previously prepared “2×-concentration” treatment media were dispensed into duplicate assay wells, thereby achieving the desired final treatment concentrations. The final concentration of DMSO in all assay wells was 0.1, 0.2 or 0.4%. Assay plates were incubated for 24 hr in a cell culture incubator (37° C./5% CO2/85% humidity).
(§5) At the 24 h assay endpoint, treatment media were discarded and […] of luciferase detection reagent was added. Relative luminometer units (RLUs) were quantified from each assay well.

[2] = biological target: T2, TRβ (Homo sapiens, UniProt P10828); assay: Thyroid-hormone reporter-gene assay, TRβ (Gal4 DBD hybrid, luciferase, HEK293); format: cell-based; settings: for EC50: reporter cells derived from HEK293, 24 hr incubation, luciferase readout; for T3-SI, selectivity index (SI) calculated as EC50 (TRα)/EC50 (TRβ): TRβ over TRα selectivity from reporter-gene EC50 values
T2 construct: expressed in transfected cells; host or cells: HEK293
T2 sequence (P10828 217-461 limits assumed): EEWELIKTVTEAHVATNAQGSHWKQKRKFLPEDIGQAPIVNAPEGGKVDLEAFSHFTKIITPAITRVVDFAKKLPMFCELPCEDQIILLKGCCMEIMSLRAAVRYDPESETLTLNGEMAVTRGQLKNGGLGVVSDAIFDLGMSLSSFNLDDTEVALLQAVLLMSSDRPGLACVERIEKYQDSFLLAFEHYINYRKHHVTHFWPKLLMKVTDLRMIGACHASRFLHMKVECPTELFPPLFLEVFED
Method: as §1, §2, §3, §4, §5

SMILES | EC50 [1] | EC50 [2] | T3-SI, selectivity index (SI) calculated as EC50 (TRα)/EC50 (TRβ) [2]
O=C(O)COc1cc(Cl)c(Cc2ccc(O)c(-c3cccc(Cl)c3)c2)c(Cl)c1 [Compound 29, 2-(3,5-dichloro-4-((3′-chloro-6-hydroxy-[1,1′-biphenyl]-3-yl)methyl)phenoxy)acetic Acid] | 100 to 1000 nM | 10 to 100 nM | ++ (3X < T3-SI ≤ 30X)
O=C(O)COc1cc(Cl)c(Cc2ccc(O)c(-c3cccs3)c2)c(Cl)c1 [Compound 34, 2-(3,5-dichloro-4-(4-hydroxy-3-(thiophen-2-yl)benzyl)phenoxy)acetic acid] | > 1000 nM | 100 to 1000 nM | ++ (3X < T3-SI ≤ 30X)
O=C(O)COc1cc(Cl)c(Cc2ccc(O)c(-c3ccco3)c2)c(Cl)c1 [Compound 38, 2-(3,5-dichloro-4-(3-(furan-2-yl)-4-hydroxybenzyl)phenoxy)acetic acid] | > 1000 nM | > 1000 nM | ++ (3X < T3-SI ≤ 30X)
O=C(O)COc1cc(Cl)c(Cc2ccc(O)c(-c3ccsc3)c2)c(Cl)c1 [Compound 42, 2-(3,5-dichloro-4-(4-hydroxy-3-(thiophen-3-yl)benzyl)phenoxy)acetic acid] | > 1000 nM | 100 to 1000 nM | ++ (3X < T3-SI ≤ 30X)
O=C(O)COc1cc(Cl)c(Cc2ccc(O)c(-c3csc(Cl)c3)c2)c(Cl)c1 [Compound 43, 2-(3,5-dichloro-4-(3-(5-chlorothiophen-3-yl)-4-hydroxybenzyl)phenoxy) acetic Acid] | > 1000 nM | 100 to 1000 nM | ++ (3X < T3-SI ≤ 30X)
CCc1ccc(F)c(-c2cc(Cc3c(Cl)cc(OCC(=O)O)cc3Cl)ccc2O)c1 [Compound 51, 2-(3,5-dichloro-4-((5′-ethyl-2′-fluoro-6-hydroxy-[1,1′-biphenyl]-3-yl)methyl)phenoxy)acetic Acid] | > 1000 nM | > 1000 nM | ++ (3X < T3-SI ≤ 30X)
O=C(O)COc1cc(Cl)c(Cc2ccc(O)c(-c3cc(OC(F)F)ccc3F)c2)c(Cl)c1 [Compound 52, 2-(3,5-dichloro-4-((5′-(difluoromethoxy)-2′-fluoro-6-hydroxy-[1,1′-biphenyl]-3-yl)methyl)phenoxy)acetic Acid] | 100 to 1000 nM | 10 to 100 nM | ++ (3X < T3-SI ≤ 30X)
O=C(O)COc1cc(Cl)c(Cc2ccc(O)c(-c3cccc(OC(F)F)c3F)c2)c(Cl)c1 [Compound 56, 2-(3,5-dichloro-4-((3′-(difluoromethoxy)-2′-fluoro-6-hydroxy-[1,1′-biphenyl]-3-yl)methyl)phenoxy)acetic Acid] | > 1000 nM | 100 to 1000 nM | ++ (3X < T3-SI ≤ 30X)
CCc1cccc(-c2cc(Cc3c(C)cc(OCC(=O)O)cc3Cl)ccc2O)c1 [Compound 60, 2-(3-chloro-4-((3′-ethyl-6-hydroxy-[1,1′-biphenyl]-3-yl)methyl)-5-methylphenoxy)acetic Acid] | > 1000 nM | 100 to 1000 nM | +++ (T3-SI > 30X)
Cc1cc(OCC(=O)O)cc(Cl)c1Cc1ccc(O)c(-c2cccc(C(F)(F)F)c2)c1 [Compound 64, 2-(3-chloro-4-((6-hydroxy-3′-(trifluoromethyl)-[1,1′-biphenyl]-3-yl)methyl)-5-methylphenoxy)acetic Acid] | 100 to 1000 nM | 100 to 1000 nM | ++ (3X < T3-SI ≤ 30X)
Cc1cc(OCC(=O)O)cc(Br)c1Cc1ccc(O)c(-c2cccc(OC(F)F)c2)c1 [Compound 66, 2-(3-bromo-4-((3′-(difluoromethoxy)-6-hydroxy-[1,1′-biphenyl]-3-yl)methyl)-5-methylphenoxy)acetic Acid] | 100 to 1000 nM | 10 to 100 nM | ++ (3X < T3-SI ≤ 30X)
O=C(O)COc1cc(Cl)c(Cc2ccc(O)c(Cc3ccc(F)cc3)c2)c(Cl)c1 [Compound 70, 2-(3,5-dichloro-4-(3-(4-fluorobenzyl)-4-hydroxybenzyl)phenoxy)acetic Acid] | > 1000 nM | 100 to 1000 nM | +++ (T3-SI > 30X)
O=C(O)COc1cc(Cl)c(Cc2ccc(O)c(Cc3ccncc3)c2)c(Cl)c1 [Compound 82, 2-(3,5-dichloro-4-(4-hydroxy-3-(pyridin-4-ylmethyl)benzyl)phenoxy) acetic Acid] | > 1000 nM | > 1000 nM | ++ (3X < T3-SI ≤ 30X)
O=C(O)COc1cc(Cl)c(Cc2ccc(O)c(Cc3ccccc3F)c2)c(Cl)c1 [Compound 84, 2-(3,5-dichloro-4-(3-(2-fluorobenzyl)-4-hydroxybenzyl)phenoxy)acetic Acid] | > 1000 nM | > 1000 nM | ++ (3X < T3-SI ≤ 30X)

Continued, values first:

EC50 [1] | EC50 [2] | T3-SI, selectivity index (SI) calculated as EC50 (TRα)/EC50 (TRβ) [2] | SMILES
> 1000 nM | > 1000 nM | – | C=C(C)c1cccc(-c2cc(Cc3c(Cl)cc(OCC(=O)O)cc3Cl)ccc2O)c1 [Compound 22, 2-(3,5-dichloro-4-((6-hydroxy-3′-(prop-1-en-2-yl)-[1,1′-biphenyl]-3-yl)methyl)phenoxy)acetic Acid]
> 1000 nM | 100 to 1000 nM | +++ (T3-SI > 30X) | O=C(O)COc1cc(Cl)c(Cc2ccc(O)c(-c3cccc(CC(F)(F)F)c3)c2)c(Cl)c1 [Compound 26, 2-(3,5-dichloro-4-((6-hydroxy-3′-(2,2,2-trifluoroethyl)-[1,1′-biphenyl]-3-yl)methyl)phenoxy)acetic Acid]
> 1000 nM | > 1000 nM | ++ (3X < T3-SI ≤ 30X) | O=C(O)COc1cc(Cl)c(Cc2ccc(O)c(-c3cc(Cl)cs3)c2)c(Cl)c1 [Compound 36, 2-(3,5-dichloro-4-(3-(4-chlorothiophen-2-yl)-4-hydroxybenzyl)phenoxy) acetic Acid]
> 1000 nM | > 1000 nM | ++ (3X < T3-SI ≤ 30X) | O=C(O)COc1cc(Cl)c(Cc2ccc(O)c(-c3ccoc3)c2)c(Cl)c1 [Compound 40, 2-(3,5-dichloro-4-(3-(furan-3-yl)-4-hydroxybenzyl)phenoxy)acetic acid]
100 to 1000 nM | 10 to 100 nM | ++ (3X < T3-SI ≤ 30X) | O=C(O)COc1cc(Cl)c(Cc2ccc(O)c(-c3cc(C(F)(F)F)ccc3F)c2)c(Cl)c1 [Compound 45, 2-(3,5-dichloro-4-((2′-fluoro-6-hydroxy-5′-(trifluoromethyl)-[1,1′-biphenyl]-3-yl)methyl)phenoxy)acetic Acid]
> 1000 nM | 100 to 1000 nM | ++ (3X < T3-SI ≤ 30X) | O=C(O)COc1cc(Cl)c(Cc2ccc(O)c(-c3cccc(C(F)(F)F)c3F)c2)c(Cl)c1 [Compound 49, 2-(3,5-dichloro-4-((2′-fluoro-6-hydroxy-3′-(trifluoromethyl)-[1,1′-biphenyl]-3-yl)methyl)phenoxy)acetic Acid]
> 1000 nM | 100 to 1000 nM | ++ (3X < T3-SI ≤ 30X) | O=C(O)COc1cc(Cl)c(Cc2ccc(O)c(-c3cc(F)cc(OC(F)F)c3)c2)c(Cl)c1 [Compound 54, 2-(3,5-dichloro-4-((3′-(difluoromethoxy)-5′-fluoro-6-hydroxy-[1,1′-biphenyl]-3-yl)methyl)phenoxy)acetic Acid]
> 1000 nM | 100 to 1000 nM | ++ (3X < T3-SI ≤ 30X) | Cc1cc(OCC(=O)O)cc(Cl)c1Cc1ccc(O)c(-c2cccc(OC(F)F)c2)c1 [Compound 62, 2-(3-chloro-4-((3′-(difluoromethoxy)-6-hydroxy-[1,1′-biphenyl]-3-yl)methyl)-5-methylphenoxy)acetic Acid]
10 to 100 nM | 10 to 100 nM | ++ (3X < T3-SI ≤ 30X) | CC(c1ccc(F)cc1)c1cc(Cc2c(Cl)cc(OCC(=O)O)cc2Cl)ccc1O (centres unmarked) [Compound 73, 2-(3,5-dichloro-4-(3-(1-(4-fluorophenyl)ethyl)-4-hydroxybenzyl)phenoxy) acetic Acid]
